Experimental data from patent publication US10350206B2, “Benzyl substituted indazoles as BUB1 inhibitors” (Bayer Pharma Aktiengesellschaft, priority 2014, dated 2019).
Like-named read-outs stand apart in the source and are kept apart here.

Tests used:
[1] = test system: HeLa human cervical tumor cells; experiment: Proliferation assay (HeLa cell line); format: cell-based; details: 96 h, 4 days incubation, crystal violet, read-out: Biological Assay 2: Proliferation assay (HeLa cell line) median IC50
Method: Human tumour cells were originally obtained from the American Type Culture Collection (ATCC), the Deutsche Sammlung von Mikroorganismen und Zellkulturen (DSMZ, German Collection of Microorganisms and Cell Cultures), or Epo GmbH Berlin. Cultivated HeLa human cervical tumor cells (DSMZ ACC-57) were plated at a density of 3000 cells/well in a 96-well multititer plate in 200 μL of growth medium supplemented 10% fetal calf serum. After 24 hours, the cells of one plate (zero-point plate) were stained with crystal violet (see below), while the medium of the other plates was supplemented with the test substances in various concentrations (0 μM, as well as in the range of 0.001-10 μM; the final concentration of the solvent dimethyl sulfoxide was adjusted to 0.1%) using a Hewlett-Packard HP D300 Digital Dispenser. The cells were incubated for 4 days in the presence of test substances. […] After three washing cycles of the fixed cells with water, the plates were dried at room temperature. The cells were stained by adding 100 μL/measuring point of a 0.1% crystal violet solution (pH 3.0). After three washing cycles of the stained cells with water, the plates were dried at room temperature. The dye was dissolved by adding 100 μL/measuring point of a 10% acetic acid solution. […] The change of cell number, in percent, was calculated by normalization of the measured values to the absorption values of the zero-point plate (=0%) and the absorption of the untreated (0 μm) cells (=100%). The IC50 values were determined by means of a 4 parameter fit.

[2] = test system: HeLa human cervical tumor cells; experiment: Proliferation Assay (HeLa+Paclitaxel); format: cell-based; details: 3 nM paclitaxel, test substance 92 hours; read-out: Biological Assay 3: Proliferation Assay (HeLa + Paclitaxel) IC50
Method: Proliferation Assay (HeLa+Paclitaxel):
Cultivated HeLa human cervical tumor cells (DSMZ ACC-57) were plated at a density of 3000 cells/well in a 96-well multititer plate in 200 μL of growth medium supplemented 10% fetal calf serum. After 24 hours, the cells of one plate (zero-point plate) were stained with crystal violet (see below). The medium of the other plates was supplemented with 3 nM of paclitaxel (Sigma-Aldrich) and the cells were incubated at 37° C. After 4 hours the test substances were added in various concentrations (0 μM, as well as in the range of 0.001-10 μM; the final concentration of the solvent dimethyl sulfoxide was adjusted to 0.1%) using a Hewlett-Packard HP D300 Digital Dispenser. The cells were incubated for another 92 hours at 37° C. in the presence of test substances. […] After three washing cycles of the fixed cells with water, the plates were dried at room temperature. The cells were stained by adding 100 μL/measuring point of a 0.1% crystal violet solution (pH 3.0). After three washing cycles of the stained cells with water, the plates were dried at room temperature. The dye was dissolved by adding 100 μL/measuring point of a 10% acetic acid solution. […] The change of cell number, in percent, was calculated by normalization of the measured values to the absorption values of the zero-point plate (=0%) and the 5 absorption of the untreated (0 μm) cells (=100%). The IC50 values were determined by means of a 4 parameter fit.

[3] = test system: Bub1 kinase (pre-induced phospho-histone 2A); experiment: H2A Abrogation-Assay (cell-based mechanistic assay, pre-treatment with Nocodazole); details: read-out: Biological Assay 4.2: H2A Abrogation IC50
Method: Biological Assay 4.2: Abrogation-Assay
Cell-Based Mechanistic Assay: Changes of Phosphorylation Status of Pre-Induced Phospho-Histone 2A by Inhibition of Kinase Activity of Bub1
This assay measures the inhibition of histone 2A phosphorylation, which was induced by pre-treatment of the cells with Nocodazole, by a Bub1 kinase inhibitor. 25000 cells (cells were ordered from ATCC) were seeded in 96 well plate for 5 h at 37° C. Cells were treated with Nocodazole (1 μg/ml). After 16h varying concentrations (between 3 nM and 10 μM) of test compounds were added and the cells were incubated for another 1h. Cells were fixed (20 min, Fixing solution R&D), washed three times with PBS and blocked with Odyssey blocking buffer before incubating with the primary antibody against phosphorylated H2A (5 μg/ml ABIN482721) overnight at 2-8° C. After washing, secondary IRDye-labeled antibody mix with cell stains was added for 1h and washed again with PBS. Plates were scanned with LiCor Odyssey Infrared Imager CLx at 800 nm for P-H2A and at 700 nm for cell stains Draq5/Sapphire. The quotient of 800 nm and 700 nm for Nocodazole only treated cells was set as 100% and the quotient of 800 nm and 700 nm of untreated cells was set as 0%. […] The IC50 values were determined by means of a 4 parameter fit.
(§1) Histone H2A is an immediate intracellular substrate of Bub1 kinase. Determination of the phosphorylation status of Histone H2A provides a direct measure of the intracellular activity of Bub1 kinase.

[4] = test system: Bub1 kinase (histone 2A phosphorylation); experiment: H2A Formation-Assay (cell-based mechanistic assay, co-treatment with Nocodazole); details: 16 h, Nocodazole 1 μg/ml together with test compound for 16 h; read-out: Biological Assay 4.1: H2A Formation IC50
Method: Biological Assay 4.1: Formation-Assay
Cell-Based Mechanistic Assay: Changes of Phosphorylation Status of Histone 2A by Inhibition of Kinase Activity of Bub1
This assay determines the suppression of histone 2A phosphorylation by a Bub1 kinase inhibitor during co-treatment with Nocodazole. 25000 cells (cells were ordered from ATCC) were seeded in 96 well plate for 5 h at 37° C. Cells were treated with Nocodazole (1 μg/ml) and varying concentrations (between 3 nM and 10 μM) of test compounds for 16h. Cells were fixed (20 min, Fixing solution R&D), washed three times with PBS and blocked with Odyssey blocking buffer before incubating with the primary antibody against phosphorylated H2A (5 μg/ml ABIN482721) overnight at […]. After washing, secondary IRDye-labeled antibody mix with cell stains was added for 1h and washed again with PBS. Plates were scanned with LiCor Odyssey Infrared Imager CLx at 800 nm for P-H2A and at 700 nm for cell stains Draq5/Sapphire. The quotient of 800 nm and 700 nm for Nocodazole only treated cells was set as 100% and the quotient of 800 nm and 700 nm of untreated cells was set as 0%. […] The IC50 values were determined by means of a 4 parameter fit.
as §1

[5] = target: T1, catalytic domain of human Bub1 (amino acids 704-1085) (Homo sapiens, UniProt O43683); experiment: Bub1 kinase assay (TR-FRET); format: biochemical; details: 10 μM ATP, 60 min reaction, pH 7.5; read-out: Biological Assay 1: Bub1 kinase assay median IC50
T1 construct: catalytic domain of human Bub1 (amino acids 704-1085); His6 (N); made in house; host or cells: Hi5 insect cells
Method: To this end, 100-fold concentrated compound solutions (in DMSO) were previously prepared by serial dilution (1:3.4) of 2 mM stocks in a clear low volume 384-well source microtiter plate (Greiner Bio-One, Frickenhausen, Germany), from which 50 nL of compounds were transferred into a black low volume test microtiter plate from the same supplier. […] The resulting mixture (5 μL final volume) was incubated at 22° during 60 min., and the reaction was stopped by the addition of 5 μL of an aqueous EDTA-solution (50 mM EDTA, in 100 mM HEPES pH 7.5 and 0.2% (w/v) bovine serum albumin) which also contained the TR-FRET detection reagents (0.2 μM streptavidin-XL665 [Cisbio Bioassays, Codolet, France] and 1 nM anti-phosho-Serine antibody [Merck Millipore, cat. #35-001] and 0.4 nM LANCE EU-W1024 labeled anti-mouse IgG antibody [Perkin-Elmer, product no. AD0077, alternatively a Terbium-cryptate-labeled anti-mouse IgG antibody from Cisbio Bioassays can be used]). The stopped reaction mixture was further incubated 1 h at 22° C. in order to allow the formation of complexes between peptides and detection reagents. Subsequently, the amount of product was evaluated by measurement of the resonance energy transfer from the Eu-chelate-antibody complex recognizing the Phosphoserine residue to the streptavidin-XL665 bound to the biotin moiety of the peptide. […] IC50 values were calculated by fitting the normalized inhibition data to a 4-parameter logistic equation (Minimum, Maximum, IC50, Hill; Y=Max+(Min−Max)/(1+(X/IC50)Hill)).

[6] = Nocodazole 1 μg/ml 16 h, then test compound 1 h

T1 sequence (O43683 704-1085): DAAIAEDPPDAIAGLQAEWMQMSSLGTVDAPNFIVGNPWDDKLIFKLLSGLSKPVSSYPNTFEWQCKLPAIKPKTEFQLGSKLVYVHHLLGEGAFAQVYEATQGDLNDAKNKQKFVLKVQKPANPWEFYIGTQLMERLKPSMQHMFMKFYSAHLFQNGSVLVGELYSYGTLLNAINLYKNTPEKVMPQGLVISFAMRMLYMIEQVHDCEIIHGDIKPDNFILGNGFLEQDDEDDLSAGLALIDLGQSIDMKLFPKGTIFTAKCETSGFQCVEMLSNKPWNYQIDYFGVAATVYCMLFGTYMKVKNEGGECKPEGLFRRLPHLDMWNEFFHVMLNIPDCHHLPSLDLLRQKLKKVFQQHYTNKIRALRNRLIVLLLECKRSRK

Row | Structure (SMILES) | IC50 [1] [µM] | IC50 [2] [µM] | IC50 [3, 6] [µM] | IC50 [4] [µM] | IC50 [5] [µM] | IC50 [3] [µM]
1 | COc1cnc(-c2nn(Cc3c(F)cc(OCCO)cc3F)c3ccccc23)nc1Nc1ccncc1Cl [Example 2-1-1, 2-{4-[(3-{4-[(3-chloropyridin-4-yl)amino]-5-methoxypyrimidin-2-yl}-1 H-indazol-1-yl)methyl]-3,5-difluorophenoxy}ethanol] | 4.1 | 0.24 | 0.01 | 0.094 | 0.013 | 
2 | COc1cnc(-c2nn(Cc3c(F)cc(OCCO)cc3F)c3ccccc23)nc1Nc1ccnc(NC(C)=O)c1 [Example 2-1-4, N-{4-[(2-{1-[2,6-difluoro-4-(2-hydroxyethoxy)benzyl]-1H-indazol-3-yl}-5-methoxypyrimidin-4-yl)amino]pyridin-2-yl}acetamide] | > 10 | 0.1 | 0.15 | 0.0082 | 0.0083 | 
3 | COc1cnc(-c2nn(Cc3c(F)cc(OCCO)cc3F)c3ccccc23)nc1Nc1ccncc1C [Example 2-1-5, 2-{3,5-difluoro-4-[(3-{5-methoxy-4-[(3-methylpyridin-4-yl)amino]pyrimidin-2-yl}-1H-indazol-1-yl)methyl]phenoxy}ethanol] | 3.1 | 0.15 | 0.6 | 0.0069 | 0.01 | 
4 | COc1cnc(-c2nn(Cc3c(F)cc(OCCO)cc3F)c3ccccc23)nc1Nc1ccnc(C(F)F)c1 [Example 2-1-7, 2-(4-{[3-(4-{[2-(difluoromethyl)pyridin-4-yl]amino}-5-methoxypyrimidin-2-yl)-1H-indazol-1-yl]methyl}-3,5-difluorophenoxy)ethanol] | 9.1 | 0.48 |  | 0.027 | 0.023 | 
5 | COc1cnc(-c2nn(Cc3c(F)cc(OCCO)cc3F)c3ccccc23)nc1Nc1ccncc1C1CC1 [Example 2-1-9, 2-{4-[(3-{4-[(3-cyclopropylpyridin-4-yl)amino]-5-methoxypyrimidin-2-yl}-1H-indazol-1-yl)methyl]-3,5-difluorophenoxy}ethanol] |  |  |  |  | 0.013 | 
6 | COc1cnccc1Nc1nc(-c2nn(Cc3c(F)cc(OCCCO)cc3F)c3ccccc23)ncc1OC [Example 2-3-2, 3-{3,5-difluoro-4-[(3-{5-methoxy-4-[(3-methoxypyridin-4-yl)amino]pyrimidin-2-yl}-1H-indazol-1-yl)methyl]phenoxy}propan-1-ol] | 1 | 0.055 | 0.0098 |  | 0.01 | 
7 | COc1cnc(-c2nn(Cc3c(F)cc(OCCO)cc3F)c3ccccc23)nc1Nc1cc(C)nc(C)n1 [Example 2-4-1, 2-{4-[(3-{4-[(2,6-dimethylpyrimidin-4-yl)amino]-5-methoxypyrimidin-2-yl}-1H-indazol-1-yl)methyl]-3,5-difluorophenoxy}ethanol] |  |  |  |  | 0.037 | 

The next lines start with the values.

Row | IC50 [1] [µM] | IC50 [2] [µM] | IC50 [3, 6] [µM] | IC50 [4] [µM] | IC50 [5] [µM] | IC50 [3] [µM] | Structure (SMILES)
8 | > 10 | 0.12 |  |  | 0.031 |  | COc1cnc(-c2nn(Cc3c(F)cc(OCCO)cc3F)c3ccccc23)nc1Nc1cc(C)ncc1C [Example 2-1-8, 2-{4-[(3-{4-[(2,5-dimethylpyridin-4-yl)amino]-5-methoxypyrimidin-2-yl}-1H-indazol-1-yl)methyl]-3,5-difluorophenoxy}ethanol]
9 | > 10 | 0.14 |  |  | 0.095 |  | COc1cnc(C)cc1Nc1nc(-c2nn(Cc3c(F)cc(OCCO)cc3F)c3ccccc23)ncc1OC [Example 2-1-19, 2-{3,5-difluoro-4-[(3-{5-methoxy-4-[(5-methoxy-2-methylpyridin-4-yl)amino]pyrimidin-2-yl}-1H-indazol-1-yl)methyl]phenoxy}ethanol]
10 | 3.3 | 0.65 |  |  |  | 3.6 | COc1cnc(-c2nn(Cc3c(F)cc(OCCOC(C)=O)cc3F)c3ccccc23)nc1Nc1ccncc1 [Example 6-3-1, 2-[3,5-difluoro-4-({3-[5-methoxy-4-(pyridin-4-ylamino)pyrimidin-2-yl]-1H-indazol-1-yl}methyl)phenoxy]ethyl acetate, reference compound]
11 |  |  |  |  | 0.021 |  | CCOc1cc(F)c(Cn2nc(-c3ncc(OCCOCCNC(=S)Nc4ccc(-c5c6ccc(=O)cc-6oc6cc(O)ccc56)c(C(=O)O)c4)c(Nc4ccncc4)n3)c3ccccc32)c(F)c1 [Example 6-5-1, 5-[({2-[2-({2-[1-(4-ethoxy-2,6-difluorobenzyl)-1H-indazol-3-yl]-4-(pyridin-4-ylamino)pyrimidin-5-yl}oxy)ethoxy]ethyl}carbamothioyl)amino]-2-(6-hydroxy-3-oxo-3H-xanthen-9-yl)benzoic acid, reference compound]
